Data published in ChEMBL document CHEMBL5442334, “ASAP - In vitro safety pharmacology profile” (2024).

Columns and labels:
[1] = molecular target: Sodium-dependent dopamine transporter (Homo sapiens) (UniProt Q01959); assay: SafetyScreen: DAT Human Dopamine Transporter Binding Antagonist Radioligand LeadHunter Assay, catalogue number: 52; details: Test compound concentration 10.0 uM
[2] = test system: Voltage-gated sodium channel; assay: SafetyScreen: Sodium Ion Channel Site 2 (Non-Selective) Rat Ion Channel [3H] Batrachotoxinin Binding LeadHunter Assay, catalogue number: 169; format: protein assay; details: at 10 µM, test compound concentration 10 uM
[3] = molecular target: T1, 5-hydroxytryptamine receptor 1A (Homo sapiens) (UniProt P08908); assay: SafetyScreen: 5-HT1A Human Serotonin GPCR Binding Agonist Radioligand LeadHunter Assay, catalogue number: 131; details: Test compound concentration 10.0 uM
T1 sequence (whole entry): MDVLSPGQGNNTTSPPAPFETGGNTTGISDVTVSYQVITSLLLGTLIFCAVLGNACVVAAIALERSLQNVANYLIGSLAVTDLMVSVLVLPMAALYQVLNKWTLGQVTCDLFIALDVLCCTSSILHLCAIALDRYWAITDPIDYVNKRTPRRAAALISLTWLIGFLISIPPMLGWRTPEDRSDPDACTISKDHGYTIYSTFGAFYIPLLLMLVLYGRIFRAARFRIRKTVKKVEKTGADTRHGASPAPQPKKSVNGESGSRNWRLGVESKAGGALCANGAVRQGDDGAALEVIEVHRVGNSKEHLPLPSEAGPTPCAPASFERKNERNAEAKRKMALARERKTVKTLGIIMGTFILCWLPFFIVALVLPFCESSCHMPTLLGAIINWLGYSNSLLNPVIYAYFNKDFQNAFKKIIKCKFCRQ

[4] = molecular target: Neuronal acetylcholine receptor; alpha4/beta2 (Homo sapiens) (UniProt P17787+P43681); assay: SafetyScreen: nAChR (alpha4/beta2) Human Ion Channel Binding Agonist Radioligand LeadHunter Assay, catalogue number: 3029; format: protein-complex assay; details: Test compound concentration 10.0 uM
[5] = molecular target: Delta-type opioid receptor (Homo sapiens) (UniProt P41143); assay: SafetyScreen: delta (DOP) Human Opioid GPCR Binding Agonist Radioligand LeadHunter Assay, catalogue number: 114; details: Test compound concentration 10.0 uM
Chain of Delta-type opioid receptor (Homo sapiens) (P41143 whole entry): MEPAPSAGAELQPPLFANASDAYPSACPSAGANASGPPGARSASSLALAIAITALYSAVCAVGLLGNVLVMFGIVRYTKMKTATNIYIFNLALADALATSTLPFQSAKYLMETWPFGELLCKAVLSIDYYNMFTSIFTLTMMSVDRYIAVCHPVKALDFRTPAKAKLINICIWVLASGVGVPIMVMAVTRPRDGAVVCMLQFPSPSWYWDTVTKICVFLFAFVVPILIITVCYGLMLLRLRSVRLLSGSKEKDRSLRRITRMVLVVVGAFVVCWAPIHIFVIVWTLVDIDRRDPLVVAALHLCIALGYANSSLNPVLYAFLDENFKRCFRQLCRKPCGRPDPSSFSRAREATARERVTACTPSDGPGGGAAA

[6] = molecular target: Cannabinoid receptor 2 (Homo sapiens) (UniProt P34972); assay: SafetyScreen: CB2 Human Cannabinoid GPCR Binding Agonist Radioligand LeadHunter Assay, catalogue number: 37; details: Test compound concentration 10.0 uM
Chain of Cannabinoid receptor 2 (Homo sapiens) (P34972 whole entry): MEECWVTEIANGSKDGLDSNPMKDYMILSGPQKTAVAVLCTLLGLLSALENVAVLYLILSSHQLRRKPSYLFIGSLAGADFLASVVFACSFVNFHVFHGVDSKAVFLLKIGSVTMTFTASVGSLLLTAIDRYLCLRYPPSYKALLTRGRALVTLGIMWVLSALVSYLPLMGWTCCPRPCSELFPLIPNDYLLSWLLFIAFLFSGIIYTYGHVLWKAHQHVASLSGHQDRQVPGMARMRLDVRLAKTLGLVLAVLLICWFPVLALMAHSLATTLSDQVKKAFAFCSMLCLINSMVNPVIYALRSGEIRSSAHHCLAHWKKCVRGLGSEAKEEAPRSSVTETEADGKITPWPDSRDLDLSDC

[7] = molecular target: Sodium-dependent serotonin transporter (Homo sapiens) (UniProt P31645); assay: SafetyScreen: SERT Human Serotonin Transporter Binding Antagonist Radioligand LeadHunter Assay, catalogue number: 439; details: Test compound concentration 10.0 uM
Chain of Sodium-dependent serotonin transporter (Homo sapiens) (P31645 whole entry, looked up): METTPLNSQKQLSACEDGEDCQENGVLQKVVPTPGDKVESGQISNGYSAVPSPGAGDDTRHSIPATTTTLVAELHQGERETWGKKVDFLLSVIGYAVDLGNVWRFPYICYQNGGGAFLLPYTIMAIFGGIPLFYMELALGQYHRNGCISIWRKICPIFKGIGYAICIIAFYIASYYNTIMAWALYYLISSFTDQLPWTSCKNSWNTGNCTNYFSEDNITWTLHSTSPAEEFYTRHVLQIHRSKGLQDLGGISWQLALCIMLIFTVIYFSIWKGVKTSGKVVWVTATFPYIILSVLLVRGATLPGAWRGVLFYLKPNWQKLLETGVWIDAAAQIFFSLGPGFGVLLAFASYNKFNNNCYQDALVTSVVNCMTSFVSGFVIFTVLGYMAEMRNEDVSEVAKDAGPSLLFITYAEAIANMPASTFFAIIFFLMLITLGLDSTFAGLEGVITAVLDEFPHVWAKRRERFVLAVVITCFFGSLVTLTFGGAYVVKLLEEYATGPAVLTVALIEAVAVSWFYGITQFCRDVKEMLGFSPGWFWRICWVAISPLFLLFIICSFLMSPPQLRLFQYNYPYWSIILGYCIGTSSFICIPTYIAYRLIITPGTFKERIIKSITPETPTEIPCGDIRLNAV

[8] = molecular target: Muscarinic acetylcholine receptor M3 (Homo sapiens) (UniProt P20309); assay: SafetyScreen: M3 Human Acetylcholine (Muscarinic) GPCR Binding Antagonist Radioligand LeadHunter Assay, catalogue number: 95; details: Test compound concentration 10.0 uM
Chain of Muscarinic acetylcholine receptor M3 (Homo sapiens) (P20309 whole entry, looked up): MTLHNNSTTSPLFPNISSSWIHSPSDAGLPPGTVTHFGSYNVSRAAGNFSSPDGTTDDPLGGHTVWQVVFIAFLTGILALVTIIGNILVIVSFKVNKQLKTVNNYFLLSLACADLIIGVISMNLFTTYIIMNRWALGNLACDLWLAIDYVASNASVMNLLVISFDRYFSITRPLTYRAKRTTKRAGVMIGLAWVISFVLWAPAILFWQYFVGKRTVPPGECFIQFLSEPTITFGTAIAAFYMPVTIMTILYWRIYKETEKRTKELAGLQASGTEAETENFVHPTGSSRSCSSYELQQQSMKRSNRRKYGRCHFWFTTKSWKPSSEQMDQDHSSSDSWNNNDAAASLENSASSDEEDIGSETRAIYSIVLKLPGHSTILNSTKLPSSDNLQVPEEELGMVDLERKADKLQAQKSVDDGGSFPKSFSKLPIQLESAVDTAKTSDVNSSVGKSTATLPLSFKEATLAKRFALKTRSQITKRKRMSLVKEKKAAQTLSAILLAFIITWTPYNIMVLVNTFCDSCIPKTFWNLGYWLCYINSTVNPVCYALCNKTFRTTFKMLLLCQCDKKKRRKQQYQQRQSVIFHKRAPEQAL

[9] = molecular target: D(2) dopamine receptor (Homo sapiens) (UniProt P14416); assay: SafetyScreen: D2S Human Dopamine GPCR Binding Agonist Radioligand LeadHunter Assay, catalogue number: 1322; details: Test compound concentration 10.0 uM
Chain of D(2) dopamine receptor (Homo sapiens) (P14416 whole entry): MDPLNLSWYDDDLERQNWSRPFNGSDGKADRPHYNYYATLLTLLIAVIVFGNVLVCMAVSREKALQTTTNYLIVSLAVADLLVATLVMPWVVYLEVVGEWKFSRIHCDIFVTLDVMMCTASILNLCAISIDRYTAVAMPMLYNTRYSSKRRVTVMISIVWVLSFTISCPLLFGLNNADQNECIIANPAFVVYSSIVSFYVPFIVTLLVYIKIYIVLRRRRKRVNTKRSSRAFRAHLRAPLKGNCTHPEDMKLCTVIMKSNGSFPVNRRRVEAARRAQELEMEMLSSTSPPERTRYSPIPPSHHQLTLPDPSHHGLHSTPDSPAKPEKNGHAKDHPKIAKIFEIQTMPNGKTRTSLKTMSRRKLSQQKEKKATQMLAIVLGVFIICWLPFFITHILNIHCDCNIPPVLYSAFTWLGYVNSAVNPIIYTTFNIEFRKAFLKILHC

[10] = molecular target: T2, Alpha-2A adrenergic receptor (Homo sapiens) (UniProt P08913); assay: SafetyScreen: alpha2A Human Adrenoceptor GPCR Binding Antagonist Radioligand LeadHunter Assay, catalogue number: 13; details: Test compound concentration 10.0 uM
T2 sequence (whole entry): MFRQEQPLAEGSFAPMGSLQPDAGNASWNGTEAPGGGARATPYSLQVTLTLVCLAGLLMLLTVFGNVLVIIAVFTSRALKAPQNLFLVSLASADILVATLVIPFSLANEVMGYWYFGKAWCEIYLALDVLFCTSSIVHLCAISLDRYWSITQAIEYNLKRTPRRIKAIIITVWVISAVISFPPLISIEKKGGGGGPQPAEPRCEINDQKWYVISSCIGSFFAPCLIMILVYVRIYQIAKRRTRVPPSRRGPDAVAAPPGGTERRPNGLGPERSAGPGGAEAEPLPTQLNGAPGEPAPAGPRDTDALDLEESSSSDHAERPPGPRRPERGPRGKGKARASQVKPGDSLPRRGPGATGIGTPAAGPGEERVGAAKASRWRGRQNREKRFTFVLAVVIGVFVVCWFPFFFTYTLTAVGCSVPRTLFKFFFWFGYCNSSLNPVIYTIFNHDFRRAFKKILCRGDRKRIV

[11] = molecular target: 5-hydroxytryptamine receptor 2A (Homo sapiens) (UniProt P28223); assay: SafetyScreen: 5-HT2A Human Serotonin GPCR Binding Agonist Radioligand LeadHunter Assay, catalogue number: 471; details: Test compound concentration 10.0 uM
Chain of 5-hydroxytryptamine receptor 2A (Homo sapiens) (P28223 whole entry): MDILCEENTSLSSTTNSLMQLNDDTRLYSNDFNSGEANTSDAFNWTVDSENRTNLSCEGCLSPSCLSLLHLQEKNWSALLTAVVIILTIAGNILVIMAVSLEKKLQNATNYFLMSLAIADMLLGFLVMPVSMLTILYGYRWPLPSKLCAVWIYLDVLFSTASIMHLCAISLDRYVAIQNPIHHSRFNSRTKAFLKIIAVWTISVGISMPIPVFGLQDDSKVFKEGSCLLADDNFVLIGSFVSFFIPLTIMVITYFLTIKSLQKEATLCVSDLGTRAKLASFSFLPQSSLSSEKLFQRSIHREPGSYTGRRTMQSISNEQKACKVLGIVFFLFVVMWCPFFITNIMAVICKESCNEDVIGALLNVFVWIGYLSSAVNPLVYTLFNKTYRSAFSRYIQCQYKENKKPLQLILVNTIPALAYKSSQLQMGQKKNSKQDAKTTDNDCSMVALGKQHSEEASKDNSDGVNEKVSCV

[12] = molecular target: T3, Muscarinic acetylcholine receptor M2 (Homo sapiens) (UniProt P08172); assay: SafetyScreen: M2 Human Acetylcholine (Muscarinic) GPCR Binding Antagonist Radioligand LeadHunter Assay, catalogue number: 93; details: Test compound concentration 10.0 uM
T3 sequence (whole entry): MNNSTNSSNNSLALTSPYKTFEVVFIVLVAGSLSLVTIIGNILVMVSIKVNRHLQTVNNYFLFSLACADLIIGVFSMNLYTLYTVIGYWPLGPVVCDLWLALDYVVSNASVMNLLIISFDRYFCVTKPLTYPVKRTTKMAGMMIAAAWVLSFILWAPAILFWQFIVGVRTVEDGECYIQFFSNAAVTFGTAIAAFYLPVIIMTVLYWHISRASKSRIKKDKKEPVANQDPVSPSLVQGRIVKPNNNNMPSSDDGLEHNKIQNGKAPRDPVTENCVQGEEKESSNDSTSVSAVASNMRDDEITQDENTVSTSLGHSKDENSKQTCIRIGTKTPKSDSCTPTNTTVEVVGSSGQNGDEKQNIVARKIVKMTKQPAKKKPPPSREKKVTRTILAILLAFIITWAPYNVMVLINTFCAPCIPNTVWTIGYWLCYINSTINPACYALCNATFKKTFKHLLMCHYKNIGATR

[13] = molecular target: T4, 5-hydroxytryptamine receptor 3A (Homo sapiens) (UniProt P46098); assay: SafetyScreen: 5-HT3 Human Serotonin Ion Channel Binding Antagonist Radioligand LeadHunter Assay, catalogue number: 411; details: Test compound concentration 10.0 uM
T4 sequence (whole entry): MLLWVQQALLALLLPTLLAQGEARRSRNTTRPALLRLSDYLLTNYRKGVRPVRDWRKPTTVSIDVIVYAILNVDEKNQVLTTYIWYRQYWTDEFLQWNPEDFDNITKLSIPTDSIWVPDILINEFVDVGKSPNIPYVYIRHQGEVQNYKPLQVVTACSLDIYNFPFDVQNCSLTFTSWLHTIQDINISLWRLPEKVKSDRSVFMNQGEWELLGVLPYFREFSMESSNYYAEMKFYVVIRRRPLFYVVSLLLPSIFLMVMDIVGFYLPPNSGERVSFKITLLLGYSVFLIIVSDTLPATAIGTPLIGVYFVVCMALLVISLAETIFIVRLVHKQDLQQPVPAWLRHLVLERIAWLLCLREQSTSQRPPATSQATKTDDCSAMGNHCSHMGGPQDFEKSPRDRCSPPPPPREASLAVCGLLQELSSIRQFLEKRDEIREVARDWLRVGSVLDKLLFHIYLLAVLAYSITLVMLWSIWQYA

Chain of Sodium-dependent dopamine transporter (Homo sapiens) (Q01959 whole entry): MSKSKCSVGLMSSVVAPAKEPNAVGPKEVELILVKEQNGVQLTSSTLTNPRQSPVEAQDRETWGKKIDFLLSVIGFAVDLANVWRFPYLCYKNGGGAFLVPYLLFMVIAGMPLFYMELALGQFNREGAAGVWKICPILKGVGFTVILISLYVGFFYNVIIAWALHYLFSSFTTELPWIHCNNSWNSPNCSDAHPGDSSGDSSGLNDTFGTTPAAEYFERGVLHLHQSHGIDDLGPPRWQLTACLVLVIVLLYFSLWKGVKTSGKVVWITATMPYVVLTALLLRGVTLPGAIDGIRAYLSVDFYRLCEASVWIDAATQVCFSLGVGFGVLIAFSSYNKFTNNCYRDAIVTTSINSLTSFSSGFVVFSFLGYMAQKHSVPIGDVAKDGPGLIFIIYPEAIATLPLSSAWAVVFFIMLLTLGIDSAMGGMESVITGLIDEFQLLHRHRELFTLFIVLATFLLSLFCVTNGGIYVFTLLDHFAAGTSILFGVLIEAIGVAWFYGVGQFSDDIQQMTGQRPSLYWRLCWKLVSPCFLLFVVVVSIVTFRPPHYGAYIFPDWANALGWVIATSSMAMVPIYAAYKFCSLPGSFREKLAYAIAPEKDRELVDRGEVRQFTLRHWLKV

| Compound | inhibition [1] [%] | Inhibition [2] [%] | inhibition [3] [%] | inhibition [4] [%] | inhibition [5] [%] | inhibition [6] [%] | inhibition [7] [%] | inhibition [8] [%] | inhibition [9] [%] | inhibition [10] [%] | inhibition [11] [%] | inhibition [12] [%] | inhibition [13] [%] |
| --- | --- | --- | --- | --- | --- | --- | --- | --- | --- | --- | --- | --- | --- |
| CC(C)[C@@H](Nc1ncnc2[nH]c(-c3cnn(C)c3C#N)cc12)c1ccc2c(n1)OCCO2 | 30 | 12 | 22 | -2 | 71 | 16 | 9 | 1 | 3 | 9 | 14 | 15 | 4 |
| CNC(=O)Cn1cc(-c2cc3c(N[C@@H](c4ccc5c(c4)S(=O)(=O)CCC5)C(C)C)ncnc3[nH]2)cn1 | 1 | 11 | 13 |  | 7 |  | -3 | -9 |  | 4 | 12 | 7 | 5 |
| Cn1ncc(-c2cc3c(N[C@@H](c4ccc5c(n4)OCCO5)C(C)(C)C)ncnc3[nH]2)c1C#N | 50 | 34 | 15 | -5 | 15 | 31 | 2 | -8 | 13 | 11 | -2 | 25 | 3 |
| C[C@H](C(=O)O)[C@@H](NC(=O)c1ncnc2[nH]ccc12)c1ccc(Br)cc1 | 4 | 6 | 2 | 0 |  | -5 | 0 | -9 | -1 | 3 | 1 | -4 | 2 |
| Cc1nn(C)cc1-c1cc2c(N[C@H](c3ccc4c(c3)S(=O)(=O)CCC4)C(C)C)ncnc2[nH]1 | 13 | -1 | 10 | -2 | 16 | -8 | -4 | -9 |  | 5 | 51 | 5 | 6 |
| COc1ccc([C@H](Cc2nnn[nH]2)NC(=O)c2ncnc3[nH]ccc23)cc1 | 7 | -3 | 5 | 4 |  |  | -1 |  | -4 | -1 | -4 |  | 6 |
| CC(C)[C@@H](Nc1ncnc2[nH]c(C(=O)N[C@@H]3CCN(C)C3)cc12)c1ccc2c(c1)S(=O)(=O)CCC2 | 22 | 16 | 14 | -2 |  | -8 | 1 | -9 | -7 | 6 | 1 | 52 | 2 |
| CNCc1cc(-c2cc3c(N[C@@H](c4ccc5c(c4)S(=O)(=O)CCC5)C(C)C)ncnc3[nH]2)co1 | 50 | 19 | 6 | 0 | 53 | -8 | 24 | 5 | -9 | 15 | 29 | 52 | 0 |
| CC(C)[C@H](Nc1ncnc2[nH]c(-c3cnn(C)c3C#N)cc12)c1ccc2c(n1)OCCO2 | 29 | 10 | 43 | 2 | 58 | 44 | 4 |  | -7 | 7 | 15 | 18 | 6 |
| CC(C)[C@H](Nc1ncnc2[nH]ccc12)c1ccc2c(c1)S(=O)(=O)CCC2 | 27 | -5 | 12 | 1 | 30 |  | 0 | 5 |  | 10 | 12 | 34 | 8 |
